Measured values as given in patent publication US8507448B2, “Human CD154-binding synthetic peptide and uses thereof” (Fresenius Medical Care Deutschland G.m.b.H., priority 2007, dated 2013).

How the values were obtained:
HUVEC [1] = assay: rhsCD154-induced HUVEC motility (time-lapse migration); assay type: cell-based, human
Description: Peptide 4.10 (SEQ ID NO: 6), contrary to control peptide 4.10-ala (SEQ ID NO: 8), inhibits the rhsCD154-induced motility of endothelial cells.
It is known that an inflammatory process, once triggered, can be preserved by cells outside the immune system expressing particular receptors or lymphocyte co-stimulatory molecules, such as CD40 and its ligand CD154, such as e.g. endothelial cells from the vascular wall. […] In particular, the cell migration experiments were carried out with HUVEC cells plated on gelatin at a density of 4×10^3 in complete endothelial cell medium in the presence of 20% serum. The following day, the endothelial medium was replaced with low glucose DMEM (Sigma) with a reduced serum concentration (5%), in the presence or absence of rhsCD154 (100 ng/ml).
Furthermore, in order to evaluate the inhibitory effect, rhsCD154 (100 ng/ml) was pre-incubated for 15 minutes at 37° C. with peptide 4.10 (SEQ. ID NO: 6), or with control peptide 4.10-ala (SEQ. ID NO: 8), or with a blocking anti-human CD154 antibody. The flasks were then observed at 10× magnification for a period of 4 hours under a phase contrast inverted microscope equipped with a thermostatic chamber (at about 37° C.). The cells were photographed with a camera connected to the microscope, over the whole length of time of 4 hours at regular intervals of 15 minutes each. The migratory speed of each of the cells was calculated based on the position of the nucleus of each single cell in each single frame, using an image analysis software and, as a result, the average cell migratory speed (1 standard deviation) was calculated for each experimental condition. […] As a further confirmation of the ability of peptide 4.10 to prevent human endothelial CD40 stimulation by rhsCD154 (100 ng/ml), HUVECs (3.5×10^4) were subjected to an in vitro angiogenesis assay. HUVECs were plated on a tumor matrix (Matrigel, BD) capable of promoting the formation of super cellular organization, in a basal RPMI medium supplemented with 5% serum. […]

[2] = target: T1, human CD154 expressed on the surface of J558L cells (Homo sapiens, UniProt P29965); assay: Binding of -His6-tagged peptides to J558L CD154+ cells by flow cytometry; settings: -His6 peptides 60 μM, 30 minutes at room temperature
T1 construct: expressed in transfected cells; host or cells: J558L murine myeloma cell line transfected with human CD154
T1 sequence (P29965 1-261): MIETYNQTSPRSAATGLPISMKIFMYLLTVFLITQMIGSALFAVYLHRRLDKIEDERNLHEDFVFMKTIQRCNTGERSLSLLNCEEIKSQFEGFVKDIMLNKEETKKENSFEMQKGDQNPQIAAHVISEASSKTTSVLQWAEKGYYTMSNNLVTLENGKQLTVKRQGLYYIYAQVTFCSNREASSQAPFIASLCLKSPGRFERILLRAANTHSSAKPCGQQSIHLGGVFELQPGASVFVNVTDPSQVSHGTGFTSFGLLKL
Description: FIG. 2 represents the binding of the seven peptides obtained from the human CD154-binding clones and tagged with a 6 histidines tail (-His6) to the J558L CD154^+ cells. […] The cells were incubated with each of the -His6-tagged peptides and then with a phycoerythrin-conjugated secondary antibody specific for the -His6 tail. The dotted histogram is the isotopic control, whilst the black line is the binding intensity of the CD154-specific peptides [4.2=4.3=CPSGHTKAC (SEQ ID NO: 1), 4.4=CGTHSSRIC (SEQ ID NO: 2), 4.6=CLGTQNKEC (SEQ ID NO: 3), 4.7=4.12=CTPGKPHSC (SEQ ID NO: 4), 4.8=CKAASANIC (SEQ ID NO: 5), 4.10=CLPTRHMAC (SEQ ID NO: 6) and 4.11=CLSAVHNMC (SEQ ID NO: 7)]. For each experimental condition, 10,000 events were analyzed and the values are the mean and standard deviation of 3 different experiments.
(§1) The peptides were synthesized and conjugated with biotin (-bio) or with a 6-histidine tail (-his6) so as to enable in vitro and in vivo localization. […] Furthermore, a competition assay between the peptides and an anti-human CD154 fluorescein-conjugated antibody (Serotec) specifically recognizing the active site of CD154 was carried out. The J558L cells were incubated with the his6-peptides for 30 minutes at room temperature and then with anti-human CD154 fluorescein-conjugated antibody for another 30 minutes at room temperature. […] In order to identify the amino acid residues of the amino acid sequence of peptide 4.10 which are essential to the binding to CD154, three different peptides were synthesized, each one carrying a point mutation, which amino acid sequences differ from that of peptide 4.10 by replacement of the amino acid residues at positions 4, 5, 6, respectively, with one alanine residue.
The mutated peptides were not capable of recognizing human CD154 expressed at the surface of J558L cells (data not shown).
Similar results were obtained with the four modified peptides 4.101, 4.102, 4.103 e 4.104 having the amino acid sequences illustrated in table II.

HUVEC [3] = assay: In vitro angiogenesis: cell cord formation of HUVECs on Matrigel; assay type: cell-based, human; settings: pre-incubated with rhsCD154 100 ng/ml for 15 minutes at 37° C.; 4 hours
From the text: FIGS. 7B-F show representative images of cell cord formation ability on Matrigel under the various experimental conditions mentioned above (B=unstimulated control; C=rhsCD154; D=rhsCD154+ 4.10 peptide; E=rhsCD154+ 4.10-ala peptide; F=rhsCD154+ blocking anti-CD154 antibody). Peptide 4.10 of the invention (SEQ ID NO: 6), contrary to control peptide 4.10-ala (SEQ ID NO: 8), inhibits the rhsCD154-induced ability of the endothelial cells of forming cell cords.
Furthermore, in order to evaluate the inhibitory effect, rhsCD154 (100 ng/ml) was pre-incubated for 15 minutes at 37° C. with peptide 4.10 (SEQ. ID NO: 6), or with control peptide 4.10-ala (SEQ. ID NO: 8), or with a blocking anti-human CD154 antibody. The flasks were then observed at 10× magnification for a period of 4 hours under a phase contrast inverted microscope equipped with a thermostatic chamber (at about 37° C.). The cells were photographed with a camera connected to the microscope, over the whole length of time of 4 hours at regular intervals of 15 minutes each. The migratory speed of each of the cells was calculated based on the position of the nucleus of each single cell in each single frame, using an image analysis software and, as a result, the average cell migratory speed (1 standard deviation) was calculated for each experimental condition. […] As a further confirmation of the ability of peptide 4.10 to prevent human endothelial CD40 stimulation by rhsCD154 (100 ng/ml), HUVECs (3.5×10^4) were subjected to an in vitro angiogenesis assay. HUVECs were plated on a tumor matrix (Matrigel, BD) capable of promoting the formation of super cellular organization, in a basal RPMI medium supplemented with 5% serum. Upon incubation at 37° C. under 5% CO2 for 4 hours, the cells were observed under a contrast phase inverted microscope.

[4] = system: CD40 stimulation of peripheral B cells by rhsCD154; assay: rhsCD154-induced B cell activation (CD80 and CD86 membrane expression); assay type: cell-based, human
Description: The histograms of 4A show the effect of the anti-CD154 peptides and the control peptide 4.10-ala, on the activation B cells induced by stimulation with a soluble recombinant human CD154 molecule (rhsCD154). B cells were stimulated for 48 hours with rhsCD154 in the absence and in the presence of a blocking anti-human CD154 antibody or one of the seven selected peptides. Peripheral B cell activation was evaluated by flow cytometry, as the membrane expression of the co-stimulatory molecules CD80 and CD86. […] On the contrary, the activation is prevented when rhsCD154 is used in combination with a blocking anti-human CD154 antibody or with peptide 4.10 (SEQ ID NO: 6).
B cells are known to constitutively express the CD40 molecule on the cells membrane (van Kooten C. et al, J. Leukoc. Biol. 2000). Stimulation of CD40 by CD154-expressing activated T cells, results in B cells activation, proliferation and isotype switching. The inventors employed B cells isolated from whole peripheral blood of healthy donors by gradient-Ficoll centrifugation and immunomagnetical separation (MACS systems—Milteniy). The quiescent B cells thereby obtained, were then stimulated with a soluble form of human recombinant CD154 (rhsCD154) to induce activation and expression of the co-stimulatory molecules CD80 (B7-1) and CD86 (B7-2) on the cell membrane. A drastic increase in membrane expression of CD80 and CD86 on the cell surface of peripheral B cells, after stimulation for 48 hours with rhsCD154 (100 ng/ml) was observed. […] In contrast, pre-incubation for 15 minutes at 37° C. of rhsCD154 (100 ng/ml) with peptide 4.10 (SEQ. ID NO: 6), prior to lymphocyte stimulation, blocked B cells stimulation and the related expression of CD80 and CD86. […] The results are the mean±standard deviation of five different experiments. Similar results were also obtained with B cells isolated from human spleen fragments. […] These experiments were carried out on […] naive B cells, obtained from peripheral blood by negative selection, by depletion of mature lymphocytes from the B cell pool by immunomagnetic separation (MACS Systems Milteniy).

[5] = target: T2, active site of human CD154 (Homo sapiens, UniProt P29965); assay: Competition with anti-human CD154 fluorescein-conjugated antibody on J558L cells; assay type: binding; settings: -His6 peptides 30 minutes at room temperature, then antibody
T2 construct: expressed in transfected cells; host or cells: J558L murine myeloma cell line transfected with human CD154
T2 sequence (P29965 1-261): T1 sequence (P29965 1-261)
Description: The murine myeloma cells transfected with human CD154, J558L, were incubated with each of the seven anti-CD154 peptides tagged with a 6 histidines tail (-His6), and then with the anti-CD154 fluorescein-conjugated antibody. The ability of the peptides to compete with the anti-CD154 antibody for the binding to the CD154 molecule expressed on the surface of the J558L cells was evaluated by flow cytometry, as the reduction in the fluorescence intensity compared to the positive control represented by cells incubated with the anti-human CD154 fluorescein-conjugated antibody alone. […] The amino acid sequence of the control peptide differs from that of peptide 4.10 in that an arginine residue is replaced with an alanine residue at amino acid position 5.
as §1

human platelets = assay: Platelet aggregation assay (aggregometer); assay type: cell-based; settings: priming 10 minutes at 37° C.; peptide 60 μM with CD154
Description: Platelet aggregation was measured with an aggregometer, as the increase in light transmission compared to the control. Priming of human platelets with the anti-human CD154 antibody in combination with rhsCD154 increases platelet aggregation upon stimulation with ADP 0.5 μM.
Finally, one of the major advantages of peptide 4.10 is its lack of reactivity towards human platelets. It is know that in the past, a number of clinical trials carried out to test promising anti-CD154 monoclonal antibodies were suddenly discontinued due to dramatic prothrombotic side effects (Kelsoe G. et al, J. Clin. Invest. 2003). The hypothesis is that the anti-CD154 antibodies had triggered a cross-reaction on the surface of human platelets expressing the receptor for the Fc immunoglobulin fraction (FcR) and, after activation, the CD154 molecule. Thus, the inventors tested the effect of peptide 4.10 on platelets, by a platelet aggregation assay. Such experiments were carried out by the use of a thermostatic aggregometer, equipped with a magnetic stirrer and a real time optical density meter. Platelet aggregation was evaluated as the change in optical density versus the reference sample (blank). The experiments were carried out on platelets extracted from peripheral whole blood of healthy donors collected in tubes containing 5 U/ml heparin. In particular, the platelet enriched plasma (PRP), was obtained by whole blood centrifugation at 900 rpm for 20 minutes, while the platelet poor plasma (PPP), used as the reference sample, was obtained collecting the supernatant after another centrifugation at 3000 rpm for 10 minutes. […] Similar results were obtained inducing platelet aggregation with 0.3 U/ml thrombin.

naive B cells = assay: Isotype switching of naive B cells induced by IL-4 and rhsCD154; assay type: cell-based, human; settings: IL-4 0.4 ng/ml and rhsCD154 100 ng/ml, 96 hours, no inhibitor
Description: The graphics of FIG. 5A show the percentage of naive B cells undergoing isotype switching and expressing IgG, under basal condition with no stimulation, after stimulation for 72 hours with IL4 and CD154, […] anti-human CD154 antibody, […] 4.10 (SEQ ID NO: 6), respectively. Peptide 4.10 (SEQ ID NO: 6), just as the anti-CD154 antibody, is capable of strongly inhibiting the isotype switching of immunoglobulins induced by stimulation with rhsCD154 and IL4.
B cells are known to constitutively express the CD40 molecule on the cells membrane (van Kooten C. et al, J. Leukoc. Biol. 2000). Stimulation of CD40 by CD154-expressing activated T cells, results in B cells activation, proliferation and isotype switching. The inventors employed B cells isolated from whole peripheral blood of healthy donors by gradient-Ficoll centrifugation and immunomagnetical separation (MACS systems—Milteniy). The quiescent B cells thereby obtained, were then stimulated with a soluble form of human recombinant CD154 (rhsCD154) to induce activation and expression of the co-stimulatory molecules CD80 (B7-1) and CD86 (B7-2) on the cell membrane. A drastic increase in membrane expression of CD80 and CD86 on the cell surface of peripheral B cells, after stimulation for 48 hours with rhsCD154 (100 ng/ml) was observed. […]

[6] = rhsCD154 100 ng/ml alone, 48 hours

Substance | effect on rhsCD154-induced motility of HUVEC (HUVEC [1]; pre-incubated with rhsCD154 100 ng/ml for 15 minutes at 37° C.) | binding to J558L CD154+ cells [2] | effect on rhsCD154-induced formation of vessel-like cell cords on Matrigel (HUVEC [3]) | inhibition of rhsCD154-induced B cell activation (CD80 and CD86 expression) ([4]; 250 μM) | competition with anti-human CD154 fluorescein-conjugated antibody specific for the active site of CD154 [5] | increase in the basal motility of cells (HUVEC [1]; rhsCD154 100 ng/ml alone) | cell migratory speed (HUVEC [1]; rhsCD154 100 ng/ml alone, basal lower than 12 μm/h) | platelet aggregation induced by ADP 0.5 μM after priming (human platelets) | increase in membrane expression of CD80 compared to basal levels [4, 6] | increase in membrane expression of CD86 compared to basal levels [4, 6] | increase in the number of B cells expressing membrane IgG (naive B cells)
CLPTAHMAC (binding protein) [peptide 4.10-ala, control peptide; arginine at position 5 of peptide 4.10 replaced with alanine, reference compound] | did not affect endothelial CD40 stimulation | least reactive | did not affect the ability of the cells to form vessel-like cell cords | neither affected the expression of CD80 and CD86 | complete inactivation of the peptide's ability to compete |  |  |  |  |  | 
rhsCD154: recombinant soluble form of human CD154, used as the CD40 stimulus [reference compound] |  |  |  |  |  | about 350% | 42 μm/h | did not enhance platelet aggregation | 300% | 274% | 25%
